Assay results taken from patent US8309558B2, “Compounds for the treatment of hepatitis C” (Bristol-Myers Squibb Company, priority 2008, dated 2012).
pEC50, pIC50: −log10 of the molar value.

Legend:
[1] = target: T1, HCV NS5B RdRp genotype 1b (Hepatitis C virus genotype 1b, UniProt Q9WMX2); assay: Standard HCV NS5B RdRp enzyme assay; assay type: biochemical; details: Table 1a; HCV NS5B RdRp genotype 1b; read-out: IC50
T1 construct: The protein was expressed with an 18 amino acid C-terminal truncation to enhance the solubility; made in house; host or cells: E. coli BL21(DE3), pET21a vector
Method: HCV NS5B RdRp cloning, expression, and purification. The cDNA encoding the NS5B protein of HCV, genotype 1b, was cloned into the pET21a expression vector. The protein was expressed with an 18 amino acid C-terminal truncation to enhance the solubility. The E. coli competent cell line BL21(DE3) was used for expression of the protein. Cultures were grown at 37° C. for ˜4 hours until the cultures reached an optical density of 2.0 at 600 nm. The cultures were cooled to 20° C. and induced with 1 mM IPTG. Fresh ampicillin was added to a final concentration of 50 μg/ml and the cells were grown overnight at 20° C.
Cell pellets (3 L) were lysed for purification to yield 15-24 mgs of purified NS5B. The lysis buffer consisted of 20 mM Tris-HCl, pH 7.4, 500 mM NaCl, 0.5% triton X-100, 1 mM DTT, 1 mM EDTA, 20% glycerol, 0.5 mg/ml lysozyme, 10 mM MgCl2, 15 ug/ml deoxyribonuclease I, and Complete TM protease inhibitor tablets (Roche). After addition of the lysis buffer, frozen cell pellets were resuspended using a tissue homogenizer. To reduce the viscosity of the sample, aliquots of the lysate were sonicated on ice using a microtip attached to a Branson sonicator. The sonicated lysate was centrifuged at 100,000×g for 1 hr at 4° C. and filtered through a 0.2 μm filter unit (Corning).
The protein was purified using three sequential chromatography steps: Heparin sepharose CL-6B, polyU sepharose 4B, and Hitrap SP sepharose (Pharmacia). The chromatography buffers were identical to the lysis buffer but contained no lysozyme, deoxyribonuclease I, MgC12 or protease inhibitor and the NaCl concentration of the buffer was adjusted according to the requirements for charging the protein onto the column. Each column was eluted with a NaCl gradient which varied in length from 5-50 column volumes depending on the column type. After the final chromatography step, the resulting purity of the enzyme is >90% based on SDS-PAGE analysis. The enzyme was aliquoted and stored at −80° C.
Standard HCV NS5B RdRp enzyme assay. HCV RdRp genotype 1b assays were run in a final volume of 60 μl in 96 well plates (Costar 3912). The assay buffer composed of 20 mM Hepes, pH 7.5, 2.5 mM KCl, 2.5 mM MgCl2, 1 mM DTT, 1.6 U RNAse inhibitor (Promega N2515), 0.1 mg/ml BSA (Promega R3961), and 2% glycerol. All compounds were serially diluted (3-fold) in DMSO and diluted further in water such that the final concentration of DMSO in the assay was 2%. HCV RdRp genotype 1b enzyme was used at a final concentration of 28 nM. A polyA template was used at 6 nM, and a biotinylated oligo-dT12 primer was used at 180 nM final concentration. Template was obtained commercially (Amersham 27-4110). Biotinylated primer was prepared by Sigma Genosys. 3H-UTP was used at 0.6 μCi (0.29 μM total UTP). Reactions were initiated by the addition of enzyme, incubated at 30° C. for 60 min, and stopped by adding 25 μl of 50 mM EDTA containing SPA beads (4 μg/μl, Amersham RPNQ 0007). Plates were read on a Packard Top Count NXT after >1 hr incubation at room temperature.
IC50 values for compounds were determined using seven different [I]. IC50 values were calculated from the inhibition using the formula y=A+((B−A)/(1+((C/x)^D))).

HCV replicon cells = assay: HCV replicon FRET / luciferase assay (96-well plates); assay type: cell-based; details: Hepatitis C virus, Table 1a; HCV replicon; read-out: EC50
How it was run: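 HCV replicon cells (with or without Renilla luciferase reporter) were plated with titrated compounds at 37 °C. After Alamar blue toxicity reading, cells were lysed in reagent containing 20 μM EDANS/DABCYL NS3 protease FRET peptide and 150 mM NaCl, read kinetically at 340/490 nm, or assayed by Dual-Glo luciferase.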

T1 sequence (Q9WMX2 2420-2992): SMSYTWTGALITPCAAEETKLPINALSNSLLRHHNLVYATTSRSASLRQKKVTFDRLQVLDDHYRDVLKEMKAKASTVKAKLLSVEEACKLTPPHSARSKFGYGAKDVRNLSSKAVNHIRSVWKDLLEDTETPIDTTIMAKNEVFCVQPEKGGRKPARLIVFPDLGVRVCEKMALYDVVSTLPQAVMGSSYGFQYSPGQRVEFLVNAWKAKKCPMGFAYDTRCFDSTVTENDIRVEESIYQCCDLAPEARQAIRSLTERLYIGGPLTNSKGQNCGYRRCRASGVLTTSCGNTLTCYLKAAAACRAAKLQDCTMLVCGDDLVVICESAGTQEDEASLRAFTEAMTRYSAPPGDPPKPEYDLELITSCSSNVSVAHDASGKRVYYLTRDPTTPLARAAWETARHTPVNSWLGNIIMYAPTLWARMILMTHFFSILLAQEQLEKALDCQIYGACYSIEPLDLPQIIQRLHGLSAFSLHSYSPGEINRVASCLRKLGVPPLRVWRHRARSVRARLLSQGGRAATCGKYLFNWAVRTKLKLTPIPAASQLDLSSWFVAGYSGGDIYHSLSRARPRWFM

Compound | pIC50 [1] | pEC50 (HCV replicon cells)
CNC(=O)c1c(-c2ccc(F)cc2)oc2ccc(-c3cccc(C(=O)NC(C)(C)C)c3)cc12 | > 6.60 | > 6.60
CNC(=O)c1c(-c2ccc(F)cc2)oc2ccc(-c3cccc(C(=O)N(C)C(C)(C)C)c3)cc12 | > 6.60 | > 6.60
CNC(=O)c1c(-c2ccc(F)cc2)oc2ccc(-c3cccc(C(=O)Nc4cc(C)nn4C)c3)cc12 | > 6.60 | > 6.60
CNC(=O)c1c(-c2ccc(F)cc2)oc2ccc(-c3cccc(C(=O)NCc4cccc(O)c4)c3)cc12 | 6.00 to 6.60 | > 6.60
CNC(=O)c1c(-c2ccc(F)cc2)oc2ccc(-c3cccc(C(=O)NC(C)(C)c4ccccc4)c3)c([N+](=O)[O-])c12 | > 6.60 | > 6.60
CNC(=O)c1c(-c2ccc(F)cc2)oc2cc([N+](=O)[O-])c(-c3cccc(C(=O)NC4(c5ccccc5)CC4)c3)cc12 | > 6.60 | > 6.60
CNC(=O)c1c(-c2ccc(F)cc2)oc2ccc(-c3cccc(C(=O)NC(C)(C)c4ccccc4)c3)c(N)c12 | > 6.60 | > 6.60
CNC(=O)c1c(-c2ccc(F)cc2)oc2cc(NS(C)(=O)=O)c(-c3cccc(C(=O)NC(C)(C)c4ccccc4)c3)cc12 | > 6.60 | > 6.60
CNC(=O)c1c(-c2ccc(F)cc2)oc2ccc(-c3cccc(C(=O)Nc4ccccc4-c4ccccc4)c3)cc12 | 5.00 to 6.00 | > 6.60
CNC(=O)c1c(-c2ccc(F)cc2)oc2cc(N(CCO)S(C)(=O)=O)c(-c3cccc(C(=O)NC(C)(C)c4ccccc4)c3)cc12 | > 6.60 | > 6.60
CNC(=O)c1c(-c2ccc(F)cc2)oc2ccc(-c3cccc(C(=O)NC(C)(C)C(=O)N(C)C)c3)cc12 | > 6.60 | > 6.60
CNC(=O)c1c(-c2ccc(F)cc2)oc2cc(N)c(-c3cccc(C(=O)NC4(c5ccccc5)CC4)c3)cc12 | > 6.60 | > 6.60
CNC(=O)c1c(-c2ccc(F)cc2)oc2ccc(-c3cccc(-c4nnc(C(C)C)o4)c3)cc12 | > 6.60 | > 6.60
CNC(=O)c1c(-c2ccc(F)cc2)oc2ccc(-c3cc(C(=O)NCC(C)C)ccc3F)cc12 | > 6.60 | > 6.60
CNC(=O)c1c(-c2ccc(F)cc2)oc2ccc(-c3cccc(C(=O)NC(C)(C)C(=O)NC)c3)cc12 | > 6.60 | > 6.60
CNC(=O)c1c(-c2ccc(F)cc2)oc2ccc(-c3cccc(C(=O)NC(C)(C)C(=O)Nc4nccs4)c3)cc12 | > 6.60 | > 6.60
CNC(=O)c1c(-c2ccc(F)cc2)oc2ccc(-c3cccc(C(=O)NC(C)(C)C(=O)NCC(F)F)c3)cc12 | > 6.60 | > 6.60
CNC(=O)c1c(-c2ccc(F)cc2)oc2ccc(-c3cc(C(=O)CCC(C)C)ccc3OCCN(C)C)cc12 | > 6.60 | > 6.60
CNC(=O)c1c(-c2ccc(F)cc2)oc2ccc(-c3cn[nH]c3)cc12 | < 5.00 | 6.00 to 6.60
CNC(=O)c1c(-c2ccc(F)cc2)oc2ccc(-c3ccc(OCC(C)C)cc3)cc12 | < 5.00 | < 6.40
CNC(=O)c1c(-c2ccc(F)cc2)oc2ccc(-c3cc(OC)ncc3F)cc12 | < 5.00 | < 6.21
CNC(=O)c1c(-c2ccc(F)cc2)oc2ccc(-c3ccc(NC(=O)OC(C)(C)C)cc3)cc12 | < 5.00 | < 6.40

Compound | pIC50 [1] | pEC50 (HCV replicon cells)
CNC(=O)c1c(-c2ccc(F)cc2)oc2ccc(-c3ccc(CO)cc3)cc12 | < 5.00 | 6.00 to 6.60
CNC(=O)c1cccc(-c2ccc3oc(-c4ccc(F)cc4)c(C(=O)NC)c3c2)c1 | 5.00 to 6.00 | 6.00 to 6.60
CCNC(=O)c1cccc(-c2ccc3oc(-c4ccc(F)cc4)c(C(=O)NC)c3c2)c1 | 6.00 to 6.60 | 6.00 to 6.60
CCCCNC(=O)c1cccc(-c2ccc3oc(-c4ccc(F)cc4)c(C(=O)NC)c3c2)c1 | > 6.60 | > 6.60
CNC(=O)c1c(-c2ccc(F)cc2)oc2ccc(-c3cccc(C(=O)NCCC#N)c3)cc12 | 6.00 to 6.60 | 6.00 to 6.60
CNC(=O)c1c(-c2ccc(F)cc2)oc2ccc(-c3cccc(C(=O)N(C)CC(C)C)c3)cc12 | > 6.60 | 6.00 to 6.60
CNC(=O)c1c(-c2ccc(F)cc2)oc2ccc(-c3cccc(C(=O)Nc4ccnn4C)c3)cc12 | 6.00 to 6.60 | 6.00 to 6.60
CNC(=O)c1c(-c2ccc(F)cc2)oc2ccc(-c3cccc(C(=O)NCc4cnc(C)cn4)c3)cc12 | 6.00 to 6.60 | 6.00 to 6.60
CNC(=O)c1c(-c2ccc(F)cc2)oc2ccc(-c3cccc(C(=O)NCCc4cccs4)c3)cc12 | 6.00 to 6.60 | 6.00 to 6.60
CCOCCNC(=O)c1cccc(-c2ccc3oc(-c4ccc(F)cc4)c(C(=O)NC)c3c2)c1 | > 6.60 | 6.00 to 6.60
CNC(=O)c1c(-c2ccc(F)cc2)oc2ccc(-c3cccc(C(=O)NCC4CCOCC4)c3)cc12 | > 6.60 | 6.00 to 6.60
CNC(=O)c1c(-c2ccc(F)cc2)oc2ccc(-c3cccc(C(=O)NCc4nccs4)c3)cc12 | 6.00 to 6.60 | 6.00 to 6.60
CNC(=O)c1c(-c2ccc(F)cc2)oc2ccc(-c3cccc(C(=O)NC4CC4)c3)cc12 | 6.00 to 6.60 | 6.00 to 6.60
CNC(=O)c1c(-c2ccc(F)cc2)oc2ccc(-c3cccc(C(=O)N4CCc5ccccc54)c3)cc12 | 5.00 to 6.00 | 6.00 to 6.60
CNC(=O)c1c(-c2ccc(F)cc2)oc2ccc(-c3cccc(C(=O)NCc4ccncc4)c3)cc12 | > 6.60 | 6.00 to 6.60
CNC(=O)c1c(-c2ccc(F)cc2)oc2ccc(-c3cccc(C(=O)NCC4CCCO4)c3)cc12 (centres unmarked) | > 6.60 | 6.00 to 6.60
CNC(=O)c1c(-c2ccc(F)cc2)oc2ccc(-c3cccc(C(=O)N4CCCC4)c3)cc12 | 6.00 to 6.60 | 6.00 to 6.60
CNC(=O)c1c(-c2ccc(F)cc2)oc2ccc(-c3cccc(C(=O)NCC4CCCCC4)c3)cc12 | > 6.60 | 6.00 to 6.60
CNC(=O)c1c(-c2ccc(F)cc2)oc2ccc(-c3cccc(C(=O)N4CCC4)c3)cc12 | 6.00 to 6.60 | 6.00 to 6.60
CNC(=O)c1c(-c2ccc(F)cc2)oc2ccc(-c3cccc(C(=O)NCc4ccccn4)c3)cc12 | > 6.60 | 6.00 to 6.60
CNC(=O)c1c(-c2ccc(F)cc2)oc2ccc(-c3cccc(C(=O)NCc4cccnc4)c3)cc12 | > 6.60 | 6.00 to 6.60
